# Results published in US20240066038A1, “WNT MODULATORS TO TREAT CENTRAL NERVOUS SYSTEM INJURIES” (MAYO FOUNDATION FOR MEDICAL EDUCATION AND RESEARCH, priority 2021, published 2024).
# Legend:
# Wnt/β-catenin signaling [1] = experiment: Axin2 expression by qPCR in hCMEC/D3 cerebral microvascular endothelial cells; format: cell-based, human; settings: serum free medium, 24 h
# Protocol: The expression level of Axin2, a specific target of Wnt/β-catenin signaling, was measured by qPCR. The results represented in the histograms are shown as the means±SE and are the average of 3 independent experiments. One-way ANOVA with post hoc Tukey-Kramer honest significant difference test. **, p<0.01.
# Studies in past ten years have established that the Wnt/β-catenin pathway is a key pathway required not only for BBB formation but also for BBB integrity and function. Moreover, BBB breakdown following middle cerebral artery occlusion can be potently rescued in mice in which Wnt/β-catenin is specifically activated in brain endothelial cells. On the other hand, dysregulation of Wnt/β-catenin may limit remyelination of white matter lesions (WMLs) and render the BBB leaky.
# Wnt/β-catenin signaling [2] = experiment: Total cellular β-catenin level by Western blotting in neuronal N2a cells; format: cell-based; settings: 24 h, Western blotting normalized to actin
# Protocol: (A) Compound 1039 activates Wnt/β-catenin signaling in HEK293 cells. HEK293 cells were transfected with Super8XTOPFlash and 8-galactosidase vectors along with Wnt3A or control vector. After 24 h incubation, cells were treated with 1039 at the indicated concentrations for 24 h. The luciferase activity was then measured and normalized to the activity of the 8-galactosidase. All the values are the average of triplicate determinations with the SD values indicated by error bars. This experiment is a representative of 3 such experiments performed with similar data. (B, C) N2a cells were treated with Compound 1039 at the indicated concentrations for 24 h. (B) The levels of total cellular β-catenin were examined by Western blotting. (C) The intensity of the β-catenin bands was quantified and normalized to the corresponding signal for actin. The results represented in the histograms are shown as the mean±SD and are the average of 3 independent experiments.
# Wnt/β-catenin signaling plays a critical role in neuronal survival, neurogenesis, synaptogenesis, neuronal plasticity and synaptic plasticity.
SMILES,"activation of Wnt/β-catenin signaling (Axin2 expression, qPCR) (Wnt/β-catenin signaling [1])",β-catenin level (Wnt/β-catenin signaling [2])
Nc1ccccc1NC(=O)c1ccc(C(=O)NCC2CCN2C2CCCC2)cn1 (centres unmarked) [Compound 1015],able to activate Wnt/β-catenin signaling,
Nc1ccccc1NC(=O)c1ccc(C(=O)NCC2CCCN2CCc2ccccc2)cn1 (centres unmarked) [Compound 1039],,enhances β-catenin level in a dose dependent manner
